Measured values reported in patent US9833497B2, “Human originated EGF domain proteins and use of the same” (CHENGDU SOURCEBIO LIMITED-LIABILITY COMPANY, priority 2013, dated 2017).

Tests used:
Assay type in all cases: cell-based
[1] = tested on: E. coli DH5α; assay: Antibacterial activity: MIC and growth curve against E. coli DH5α in 96-well plate; settings: minimal inhibitory concentration against E. coli DH5α; 96-well plate, 5×10^5 CFU/mL, 37° C., judged after 8 h
Outline: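 Log-phase DH5α (OD600 about 0.5, 37° C, 185 rpm in LB) was pelleted, resuspended in fresh LB and seeded at 5×10^5 CFU/mL with recombinant protein at 50, 25 and 12.5 μg/mL (two-fold series), in triplicate. Plates were shaken at 175 rpm, 37° C, and OD600 was read every 30 min. MIC was the lowest concentration with no growth.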

[2] = tested on: E. coli BL21; assay: MIC against Gram-negative bacteria: E. coli BL21; settings: for MIC against E. coli BL21: 96-well plate, 37° C., 10 h
Outline: (§1)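 Two-fold serial dilutions of each purified human EGF domain protein, three replicate wells per level, were combined with bacteria at a final 5×10^5 CFU/mL in LB. Cultures were shaken at 175 rpm, 37° C. The MIC was taken as the minimum concentration preventing growth.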

[3] = tested on: Pseudomonas aeruginosa; assay: MIC against Gram-negative bacteria: Pseudomonas aeruginosa; settings: for MIC against P. aeruginosa: 96-well plate, 37° C., 10 h
Outline: as §1

[4] = tested on: Klebsiella pneumonia; assay: MIC against Gram-negative bacteria: Klebsiella pneumonia; settings: for MIC against K. pneumonia: 96-well plate, 37° C., 10 h
Outline: as §1

[5] = tested on: Enterobacter cloacae; assay: MIC against Gram-negative bacteria: Enterobacter cloacae; settings: for MIC against E. cloacae: 96-well plate, 37° C., 10 h
Outline: as §1

[6] = tested on: Aeromonas hydrophila; assay: MIC against Gram-negative bacteria: Aeromonas hydrophila; settings: for MIC against A. hydrophila: 96-well plate, 37° C., 10 h
Outline: as §1

[7] = tested on: Citrobacter diversus; assay: MIC against Gram-negative bacteria: Citrobacter diversus; settings: for MIC against C. diversus: 96-well plate, 37° C., 10 h
Outline: as §1

[8] = tested on: Moraxella catarrhalis; assay: MIC against Gram-negative bacteria: Moraxella catarrhalis; settings: for MIC against M. catarrhalis: 96-well plate, 37° C., 10 h
Outline: as §1

[9] = tested on: Proteus mirabilis; assay: MIC against Gram-negative bacteria: Proteus mirabilis; settings: for MIC against P. mirabilis: 96-well plate, 37° C., 10 h
Outline: as §1

[10] = tested on: Proteus vulgaris; assay: MIC against Gram-negative bacteria: Proteus vulgaris; settings: for MIC against P. vulgaris: 96-well plate, 37° C., 10 h
Outline: as §1

[11] = tested on: Serratia marcescens; assay: MIC against Gram-negative bacteria: Serratia marcescens; settings: for MIC against S. marcescens: 96-well plate, 37° C., 10 h
Outline: as §1

[12] = E. coli BL21, 10 h cultivation at 37° C.
[13] = P. aeruginosa, 10 h cultivation at 37° C.
[14] = K. pneumonia, 10 h cultivation at 37° C.
[15] = E. cloacae, 10 h cultivation at 37° C.
[16] = A. hydrophila, 10 h cultivation at 37° C.
[17] = C. diversus, 10 h cultivation at 37° C.
[18] = M. catarrhalis, 10 h cultivation at 37° C.
[19] = P. mirabilis, 10 h cultivation at 37° C.
[20] = P. vulgaris, 10 h cultivation at 37° C.
[21] = S. marcescens, 10 h cultivation at 37° C.
[22] = Pseudomonas aeruginosa, 5×10^5 CFU/mL
[23] = Klebsiella pneumonia, 5×10^5 CFU/mL
[24] = Enterobacter cloacae, 5×10^5 CFU/mL
[25] = Aeromonas hydrophila, 5×10^5 CFU/mL
[26] = Citrobacter diversus, 5×10^5 CFU/mL
[27] = Moraxella catarrhalis, 5×10^5 CFU/mL
[28] = Proteus mirabilis, 5×10^5 CFU/mL
[29] = Proteus vulgaris, 5×10^5 CFU/mL
[30] = Serratia marcescens, 5×10^5 CFU/mL

“PRT489 (CDNGGTWEQGQCACLPGFSGDRCQLQTRCQNG; listed as Homo sapiens)” was tested, and the MIC [1] was 12.5 µg/mL, the “MIC against E. coli BL21” value ([2]; 5×10^5 CFU/mL) was 12.5 µg/mL and the “MIC against P. aeruginosa” value ([3]; 5×10^5 CFU/mL) was 12.5 µg/mL. The “MIC against K. pneumonia” value ([4]; 5×10^5 CFU/mL) was 25 µg/mL, the “MIC against E. cloacae” value ([5]; 5×10^5 CFU/mL) was 12.5 µg/mL and the “MIC against A. hydrophila” value ([6]; 5×10^5 CFU/mL) was 25 µg/mL. The “MIC against C. diversus” value ([7]; 5×10^5 CFU/mL) was 12.5 µg/mL, the “MIC against M. catarrhalis” value ([8]; 5×10^5 CFU/mL) was 25 µg/mL and the “MIC against P. mirabilis” value ([9]; 5×10^5 CFU/mL) was 50 µg/mL. The “MIC against P. vulgaris” value ([10]; 5×10^5 CFU/mL) was 25 µg/mL and the “MIC against S. marcescens” value ([11]; 5×10^5 CFU/mL) was 12.5 µg/mL.
For “PRT1016 (RAGPCPPRGCSNGGTCQLMPEKDSTFHLCLCPPGFIGPDCE; listed as Homo sapiens)”, the MIC [1] was 12.5 µg/mL, the MIC [2, 12] was 25 µg/mL and the MIC [3, 13] was 50 µg/mL. It also gave an MIC [4, 14] of 25 µg/mL, an MIC [5, 15] of 12.5 µg/mL and an MIC [6, 16] of 25 µg/mL. For the same substance, the MIC [7, 17] was 50 µg/mL, the MIC [8, 18] was 100 µg/mL and the MIC [9, 19] was 50 µg/mL. The MIC [10, 20] was 25 µg/mL and the MIC [11, 21] was 12.5 µg/mL.
In the case of “PRT555 (CDCSAAGTQGNACRKDPRVGRCLCKPNFQGTHCELCAPGFYGPGCQP; listed as Homo sapiens)”, the MIC [1] is reported as 50 µg/mL, the “MIC against E. coli BL21” value ([2]; 5×10^5 CFU/mL) is reported as 25 µg/mL and the “MIC against P. aeruginosa” value ([3]; 5×10^5 CFU/mL) is reported as 12.5 µg/mL. For the same substance, the “MIC against K. pneumonia” value ([4]; 5×10^5 CFU/mL) was 25 µg/mL, the “MIC against E. cloacae” value ([5]; 5×10^5 CFU/mL) was 50 µg/mL and the “MIC against A. hydrophila” value ([6]; 5×10^5 CFU/mL) was 25 µg/mL. For the same substance, the “MIC against C. diversus” value ([7]; 5×10^5 CFU/mL) was 12.5 µg/mL, the “MIC against M. catarrhalis” value ([8]; 5×10^5 CFU/mL) was 25 µg/mL and the “MIC against P. mirabilis” value ([9]; 5×10^5 CFU/mL) was 50 µg/mL. For the same substance, the “MIC against P. vulgaris” value ([10]; 5×10^5 CFU/mL) was 25 µg/mL and the “MIC against S. marcescens” value ([11]; 5×10^5 CFU/mL) was 12.5 µg/mL.
With “PRT194 (CRSKCHGHGVCDSNRHCYCEEGWAPPDCT; listed as Homo sapiens)” the MIC [1] was 12.5 µg/mL, the “MIC (μg/mL) E. coli BL21” value ([2]; E. coli BL21, 10 h cultivation at 37° C., 5×10^5 CFU/mL) was 25 µg/mL and the “MIC (μg/mL) P. aeruginosa” value ([3]; P. aeruginosa, 10 h cultivation at 37° C., 5×10^5 CFU/mL) was 12.5 µg/mL. The “MIC (μg/mL) K. pneumonia” value ([4]; K. pneumonia, 10 h cultivation at 37° C., 5×10^5 CFU/mL) was 25 µg/mL, the “MIC (μg/mL) E. cloacae” value ([5]; E. cloacae, 10 h cultivation at 37° C., 5×10^5 CFU/mL) was 12.5 µg/mL and the “MIC (μg/mL) A. hydrophila” value ([6]; A. hydrophila, 10 h cultivation at 37° C., 5×10^5 CFU/mL) was 12.5 µg/mL. For the same substance, the “MIC (μg/mL) C. diversus” value ([7]; C. diversus, 10 h cultivation at 37° C., 5×10^5 CFU/mL) was 12.5 µg/mL, the “MIC (μg/mL) M. catarrhalis” value ([8]; M. catarrhalis, 10 h cultivation at 37° C., 5×10^5 CFU/mL) was 100 µg/mL and the “MIC (μg/mL) P. mirabilis” value ([9]; P. mirabilis, 10 h cultivation at 37° C., 5×10^5 CFU/mL) was 100 µg/mL. The “MIC (μg/mL) P. vulgaris” value ([10]; P. vulgaris, 10 h cultivation at 37° C., 5×10^5 CFU/mL) was 25 µg/mL and the “MIC (μg/mL) S. marcescens” value ([11]; S. marcescens, 10 h cultivation at 37° C., 5×10^5 CFU/mL) was 12.5 µg/mL.
“PRT916 (QADPCASNPCANGGQCLPFEASYICHCPPSFHGPTCR; listed as Homo sapiens)” showed an MIC [1] of 25 µg/mL, an MIC [2, 12] of 12.5 µg/mL and an MIC [3, 13] of 50 µg/mL. It also gave an MIC [4, 14] of 25 µg/mL, an MIC [5, 15] of 12.5 µg/mL and an MIC [6, 16] of 50 µg/mL. For the same substance, the MIC [7, 17] was 25 µg/mL, the MIC [8, 18] was 12.5 µg/mL and the MIC [9, 19] was 25 µg/mL. It also gave an MIC [10, 20] of 50 µg/mL and an MIC [11, 21] of 12.5 µg/mL.
With “PRT1300 (VIDHCVPELNLCQHEAKCIPLDKGFSCECVPGYSGKLCE; listed as Homo sapiens)” the MIC [1] was 12.5 µg/mL, the “MIC against E. coli BL21” value ([2]; E. coli BL21, 5×10^5 CFU/mL) was 50 µg/mL and the “MIC against P. aeruginosa” value [3, 22] was 25 µg/mL. The “MIC against K. pneumonia” value [4, 23] was 12.5 µg/mL, the “MIC against E. cloacae” value [5, 24] was 25 µg/mL and the “MIC against A. hydrophila” value [6, 25] was 50 µg/mL. The “MIC against C. diversus” value [7, 26] was 12.5 µg/mL, the “MIC against M. catarrhalis” value [8, 27] was 12.5 µg/mL and the “MIC against P. mirabilis” value [9, 28] was 12.5 µg/mL. The “MIC against P. vulgaris” value [10, 29] was 12.5 µg/mL and the “MIC against S. marcescens” value [11, 30] was 12.5 µg/mL.
For “PRT1336 (DCNQCPGGFSNPCSGNGQCADSLGGNGTCICEEGFQGSQCQ; listed as Homo sapiens)”, the MIC [1] was 12.5 µg/mL, the “MIC against E. coli BL21” value ([2]; E. coli BL21, 5×10^5 CFU/mL) was 50 µg/mL and the “MIC against P. aeruginosa” value [3, 22] was 12.5 µg/mL. The “MIC against K. pneumonia” value [4, 23] was 50 µg/mL, the “MIC against E. cloacae” value [5, 24] was 25 µg/mL and the “MIC against A. hydrophila” value [6, 25] was 12.5 µg/mL. The “MIC against C. diversus” value [7, 26] was 50 µg/mL, the “MIC against M. catarrhalis” value [8, 27] was 12.5 µg/mL and the “MIC against P. mirabilis” value [9, 28] was 50 µg/mL. For the same substance, the “MIC against P. vulgaris” value [10, 29] was 12.5 µg/mL and the “MIC against S. marcescens” value [11, 30] was 50 µg/mL.
